Measurements reported in PubChem BioAssay AID1963830 (Molecular Pharmacology Branch, DTP, NCI, 2024).

Tested on: 922993-354-T-J3-PDC complex spheroid viability
Experiment: Anticancer human tumor 922993-354-T-J3-PDC patient-derived endometrial carcinoma cell line growth inhibition [POLQ]
Settings: for IC50: curve of first compound; for viability, T/C: stronger effect = lower value; active = viability on the fitted dose curve at most 10% of control; inactive = the rest
Method in brief: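 Three-cell-type spheroids modelling solid tumor plus stroma served as the readout system; POL inhibitors were tested individually and in combination, concentration ranges set by clinical Cmax where known.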

[1] = second compound 0.0316 µM, first compound 0.0316 µM
[2] = second compound 0.0316 µM, first compound 0.1 µM
[3] = second compound 0.0316 µM, first compound 0.316 µM
[4] = second compound 0.0316 µM, first compound 1 µM
[5] = second compound 0.0316 µM, first compound 3.16 µM
[6] = second compound 0.0316 µM, first compound 10 µM
[7] = second compound 0.1 µM, first compound 0.0316 µM
[8] = second compound 0.1 µM, first compound 0.1 µM
[9] = second compound 0.1 µM, first compound 0.316 µM
[10] = second compound 0.1 µM, first compound 1 µM
[11] = second compound 0.1 µM, first compound 3.16 µM
[12] = second compound 0.1 µM, first compound 10 µM
[13] = second compound 0.316 µM, first compound 0.0316 µM
[14] = second compound 0.316 µM, first compound 0.1 µM
[15] = second compound 0.316 µM, first compound 0.316 µM
[16] = second compound 0.316 µM, first compound 1 µM
[17] = second compound 0.316 µM, first compound 3.16 µM
[18] = second compound 0.316 µM, first compound 10 µM
[19] = second compound 1 µM, first compound 0.0316 µM
[20] = second compound 1 µM, first compound 0.1 µM
[21] = second compound 1 µM, first compound 0.316 µM
[22] = second compound 1 µM, first compound 1 µM
[23] = second compound 1 µM, first compound 3.16 µM
[24] = second compound 1 µM, first compound 10 µM
[25] = second compound 3.16 µM, first compound 0.0316 µM
[26] = second compound 3.16 µM, first compound 0.1 µM
[27] = second compound 3.16 µM, first compound 0.316 µM
[28] = second compound 3.16 µM, first compound 1 µM
[29] = second compound 3.16 µM, first compound 3.16 µM
[30] = second compound 3.16 µM, first compound 10 µM
[31] = second compound 10 µM, first compound 0.0316 µM
[32] = second compound 10 µM, first compound 0.1 µM
[33] = second compound 10 µM, first compound 0.316 µM
[34] = second compound 10 µM, first compound 1 µM
[35] = second compound 10 µM, first compound 3.16 µM
[36] = second compound 10 µM, first compound 10 µM
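Also: spheroids exposed to the agents for one week.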
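For viability, T/C in this document: 100% = DMSO vehicle control wells.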

CCc1cc2c(N3CCc4c(cc(Cn5ccnc5)cc4-c4cn(C)nc4C(F)(F)F)C3=O)ccnc2c(OC)n1 + Cc1cccc(N(C)C(=O)C2C(O)CCN2c2nc(C)cc(C(F)(F)F)c2C#N)c1
inactive: viability, T/C [1] 105% | viability, T/C [2] 107% | viability, T/C [3] 107% | viability, T/C [4] 108% | viability, T/C [5] 110% | viability, T/C [6] 94.1% | viability, T/C [7] 107% | viability, T/C [8] 106% | viability, T/C [9] 104% | viability, T/C [10] 107% | viability, T/C [11] 105% | viability, T/C [12] 99% | viability, T/C [13] 104% | viability, T/C [14] 100% | viability, T/C [15] 107% | viability, T/C [16] 110% | viability, T/C [17] 105% | viability, T/C [18] 99.5% | viability, T/C [19] 101% | viability, T/C [20] 99.4% | viability, T/C [21] 108% | viability, T/C [22] 109% | viability, T/C [23] 102% | viability, T/C [24] 107% | viability, T/C [25] 102% | viability, T/C [26] 107% | viability, T/C [27] 106% | viability, T/C [28] 106% | viability, T/C [29] 107% | viability, T/C [30] 98.4% | viability, T/C [31] 104% | viability, T/C [32] 98.4% | viability, T/C [33] 98.8% | viability, T/C [34] 102% | viability, T/C [35] 98.5% | viability, T/C [36] 102%
> 10 µM: IC50 (second compound 0.0316 µM) | IC50 (second compound 0.1 µM) | IC50 (second compound 0.316 µM) | IC50 (second compound 1 µM) | IC50 (second compound 3.16 µM) | IC50 (second compound 10 µM)

COc1cc2cc(C(=O)CCC(=O)O)sc2cc1OC + Cc1cccc(N(C)C(=O)C2C(O)CCN2c2nc(C)cc(C(F)(F)F)c2C#N)c1
inactive: viability, T/C [1] 101% | viability, T/C [2] 103% | viability, T/C [3] 101% | viability, T/C [4] 103% | viability, T/C [5] 105% | viability, T/C [6] 83.8% | viability, T/C [7] 105% | viability, T/C [8] 105% | viability, T/C [9] 97% | viability, T/C [10] 102% | viability, T/C [11] 107% | viability, T/C [12] 90.6% | viability, T/C [13] 102% | viability, T/C [14] 105% | viability, T/C [15] 101% | viability, T/C [16] 104% | viability, T/C [17] 108% | viability, T/C [18] 91.3% | viability, T/C [19] 96.8% | viability, T/C [20] 106% | viability, T/C [21] 105% | viability, T/C [22] 104% | viability, T/C [23] 102% | viability, T/C [24] 92.3% | viability, T/C [25] 102% | viability, T/C [26] 101% | viability, T/C [27] 105% | viability, T/C [28] 103% | viability, T/C [29] 110% | viability, T/C [30] 90.3% | viability, T/C [31] 104% | viability, T/C [32] 98% | viability, T/C [33] 101% | viability, T/C [34] 99.6% | viability, T/C [35] 109% | viability, T/C [36] 93.7%
> 10 µM: IC50 (second compound 0.0316 µM) | IC50 (second compound 0.1 µM) | IC50 (second compound 0.316 µM) | IC50 (second compound 1 µM) | IC50 (second compound 3.16 µM) | IC50 (second compound 10 µM)
